According to US6525001B1, “Substituted pyrimidine and pyridine herbicides” (Mid-American Commercialization Corporation, priority 1997, dated 2003):

How the values were obtained:
Assay type in all cases: in vivo
Parameters in all cases: key: 0 is no effect; 10 is complete control
wild oat (Avena fatua) = assay: Test B pre-/postemergence
From the text: (§1) Seeds of bedstraw (Galium aparine), blackgrass (Alopecurus myosuroides), broadleaf signalgrass (Brachiaria decumbens), cocklebur (Xanthium strumarium), corn (Zea mays), crabgrass (Digitaria sanguinalis), giant foxtail (Setaria faberii), lambsquarters (Chenopodium album), momingglory (Ipomoea hederacea), pigweed (Amaranthus retroflexus), rape (Brassica napus), soybean (Glycine max), sugar beet (Beta vulgaris), velvetleaf (Abutilon theophrasti), wheat (Triticum aestivum), wild oat (Avena fatua) and purple nutsedge (Cyperus rotundus) tubers were planted and treated preemergence with test chemicals formulated in a non-phytotoxic solvent mixture which included a surfactant.
(§2) At the same time, these crop and weed species were also treated with postemergence applications of test chemicals formulated in the same manner. Plants ranged in height from 2 to 18 cm (1- to 4-leaf stage) for postemergence treatments. Plant species in the flood test consisted of rice (Oryza sativa), smallflower flatsedge (Cyperus difformis), duck salad (Heteranthera limosa) and bamyardgrass (Echinochloa crus-galli) grown to the 2-leaf stage for testing. Treated plants and controls were maintained in a greenhouse for twelve to sixteen days, after which all species were compared to controls and visually evaluated. Plant response ratings, summarized in Table B, are based on a scale of 0 to 10 where 0 is no effect and 10 is complete control. A dash (−) response means no test result.

[1] = tested on: wheat (Triticum aestivum); assay: Test B pre-/postemergence
From the text: as §1, §2

[2] = tested on: bedstraw (Galium aparine); assay: Test B pre-/postemergence; conditions: for Bedstraw plant response rating: Preemergence
From the text: as §1, §2

[3] = tested on: velvetleaf (Abutilon theophrasti); assay: Test B pre-/postemergence
From the text: as §1, §2

soybean (Glycine max) = assay: Test B pre-/postemergence
From the text: as §1, §2

[4] = tested on: crabgrass (Digitaria sanguinalis); assay: Test B pre-/postemergence; conditions: for Crabgrass plant response rating: Preemergence
From the text: as §1, §2

[5] = tested on: purple nutsedge (Cyperus rotundus); assay: Test B pre-/postemergence
From the text: as §1, §2

[6] = tested on: broadleaf signalgrass (Brachiaria decumbens); assay: Test B pre-/postemergence; conditions: for B. signalgrass plant response rating: Preemergence
From the text: as §1, §2

[7] = tested on: pigweed (Amaranthus retroflexus); assay: Test B pre-/postemergence
From the text: as §1, §2

rape (Brassica napus) = assay: Test B pre-/postemergence
From the text: as §1, §2

[8] = tested on: blackgrass (Alopecurus myosuroides); assay: Test B pre-/postemergence; conditions: for Blackgrass plant response rating: Preemergence
From the text: as §1, §2

corn (Zea mays) = assay: Test B pre-/postemergence; conditions: for Corn plant response rating: Preemergence
From the text: as §1, §2

[9] = tested on: giant foxtail (Setaria faberii); assay: Test B pre-/postemergence
From the text: as §1, §2

[10] = tested on: cocklebur (Xanthium strumarium); assay: Test B pre-/postemergence; conditions: for Cocklebur plant response rating: Preemergence
From the text: as §1, §2

[11] = tested on: momingglory (Ipomoea hederacea); assay: Test B pre-/postemergence
From the text: as §1, §2

[12] = tested on: sugar beet (Beta vulgaris); assay: Test B pre-/postemergence
From the text: as §1, §2

[13] = tested on: bamyardgrass (Echinochloa crus-galli); assay: Test B flood test
Method in brief: (§3)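 Plants were grown to the 2-leaf stage before treatment with test chemical, then held in a greenhouse for twelve to sixteen days. Injury was visually rated against untreated controls on a 0–10 scale, where 0 is no effect and 10 is complete control.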

rice (Oryza sativa) = assay: Test B flood test
Method in brief: as §3

[14] = tested on: smallflower flatsedge (Cyperus difformis); assay: Test B flood test
Method in brief: as §3

[15] = tested on: duck salad (Heteranthera limosa); assay: Test B flood test
Method in brief: as §3

[16] = Rate 250 g/ha, Postemergence (so in the source)
[17] = Rate 62 g/ha, Postemergence (flood test)
[18] = Rate 125 g/ha, Postemergence, flood test
[19] = Rate 250 g/ha, Postemergence (flood test species)
[20] = Rate 125 g/ha, Postemergence section (flood test species)

Cc1cnc(-c2ccccc2F)nc1Cc1cccc(C(F)(F)F)c1 [Compound 26]
Plant response rating, Wild oats (wild oat (Avena fatua); Rate 62 g/ha, Postemergence): 0
Wild oats plant response rating (wild oat (Avena fatua); Rate 62 g/ha, Preemergence): 0
Wild oats plant response rating (wild oat (Avena fatua); Rate 125 g/ha, Postemergence): 0
Plant response rating, Wild oats (wild oat (Avena fatua); Rate 125 g/ha, Preemergence): 0
Plant response rating, Wild oats (wild oat (Avena fatua); Rate 250 g/ha, Postemergence): 0
Plant response rating, Wild oats (wild oat (Avena fatua); [16]): 0
Plant response rating, Wheat ([1]; Rate 62 g/ha, Postemergence): 0
Wheat plant response rating ([1]; Rate 62 g/ha, Preemergence): 0
Wheat plant response rating ([1]; Rate 125 g/ha, Postemergence): 0
Plant response rating, Wheat ([1]; Rate 125 g/ha, Preemergence): 0
Plant response rating, Wheat ([1]; Rate 250 g/ha, Postemergence): 0
Plant response rating, Wheat [1, 16]: 0
Plant response rating, Bedstraw ([2]; Rate 62 g/ha, Postemergence): 1
Bedstraw plant response rating ([2]; Rate 62 g/ha): 0
Plant response rating, Bedstraw ([2]; Rate 125 g/ha, Postemergence): 3
Bedstraw plant response rating ([2]; Rate 125 g/ha): 0
Plant response rating, Bedstraw ([2]; Rate 250 g/ha, Postemergence): 6
Plant response rating, Bedstraw [2, 16]: 0
Plant response rating, Velvetleaf ([3]; Rate 62 g/ha, Postemergence): 1
Velvetleaf plant response rating ([3]; Rate 62 g/ha, Preemergence): 0
Velvetleaf plant response rating ([3]; Rate 125 g/ha, Postemergence): 1
Plant response rating, Velvetleaf ([3]; Rate 125 g/ha, Preemergence): 0
Plant response rating, Velvetleaf ([3]; Rate 250 g/ha, Postemergence): 2
Plant response rating, Velvetleaf [3, 16]: 0
Plant response rating, Soybean (soybean (Glycine max); Rate 62 g/ha, Postemergence): 3
Soybean plant response rating (soybean (Glycine max); Rate 62 g/ha, Preemergence): 0
Soybean plant response rating (soybean (Glycine max); Rate 125 g/ha, Postemergence): 3
Plant response rating, Soybean (soybean (Glycine max); Rate 125 g/ha, Preemergence): 0
Plant response rating, Soybean (soybean (Glycine max); Rate 250 g/ha, Postemergence): 5
Plant response rating, Soybean (soybean (Glycine max); [16]): 0
Plant response rating, Crabgrass ([4]; Rate 62 g/ha, Postemergence): 1
Crabgrass plant response rating ([4]; Rate 62 g/ha): 0
Plant response rating, Crabgrass ([4]; Rate 125 g/ha, Postemergence): 1
Crabgrass plant response rating ([4]; Rate 125 g/ha): 0
Plant response rating, Crabgrass ([4]; Rate 250 g/ha, Postemergence): 1
Plant response rating, Crabgrass [4, 16]: 1
Plant response rating, Nutsedge ([5]; Rate 62 g/ha, Postemergence): 0
Nutsedge plant response rating ([5]; Rate 62 g/ha, Preemergence): 0
Nutsedge plant response rating ([5]; Rate 125 g/ha, Postemergence): 0
Nutsedge plant response rating ([5]; Rate 125 g/ha, Preemergence): 0
Plant response rating, B. signalgrass ([6]; Rate 62 g/ha, Postemergence): 1
B. signalgrass plant response rating ([6]; Rate 62 g/ha): 0
Plant response rating, B. signalgrass ([6]; Rate 125 g/ha, Postemergence): 1
B. signalgrass plant response rating ([6]; Rate 125 g/ha): 0
Plant response rating, B. signalgrass ([6]; Rate 250 g/ha, Postemergence): 2
Plant response rating, B. signalgrass ([6]; Rate 250 g/ha, Postemergence as printed in head r139 (second section for compounds 26-50)): 1
Plant response rating, Redroot pigweed ([7]; Rate 62 g/ha, Postemergence): 6
Redroot pigweed plant response rating ([7]; Rate 62 g/ha, Preemergence): 0
Redroot pigweed plant response rating ([7]; Rate 125 g/ha, Postemergence): 6
Redroot pigweed plant response rating ([7]; Rate 125 g/ha, Preemergence): 0
Plant response rating, Redroot pigweed ([7]; Rate 250 g/ha, Postemergence): 8
Plant response rating, Redroot pigweed [7, 16]: 4
Plant response rating, Rape (rape (Brassica napus); Rate 62 g/ha, Postemergence): 3
Rape plant response rating (rape (Brassica napus); Rate 62 g/ha, Preemergence): 0
Rape plant response rating (rape (Brassica napus); Rate 125 g/ha, Postemergence): 6
Rape plant response rating (rape (Brassica napus); Rate 125 g/ha, Preemergence): 0
Plant response rating, Rape (rape (Brassica napus); Rate 250 g/ha, Postemergence): 6
Plant response rating, Rape (rape (Brassica napus); [16]): 0
Plant response rating, Blackgrass ([8]; Rate 62 g/ha, Postemergence): 0
Blackgrass plant response rating ([8]; Rate 62 g/ha): 0
Plant response rating, Blackgrass ([8]; Rate 125 g/ha, Postemergence): 1
Blackgrass plant response rating ([8]; Rate 125 g/ha): 0
Plant response rating, Blackgrass ([8]; Rate 250 g/ha, Postemergence): 1
Plant response rating, Blackgrass [8, 16]: 0
Plant response rating, Corn (corn (Zea mays); Rate 62 g/ha, Postemergence): 1
Corn plant response rating (corn (Zea mays); Rate 62 g/ha): 0
Plant response rating, Corn (corn (Zea mays); Rate 125 g/ha, Postemergence): 1
Corn plant response rating (corn (Zea mays); Rate 125 g/ha): 0
Plant response rating, Corn (corn (Zea mays); Rate 250 g/ha, Postemergence): 1
Plant response rating, Corn (corn (Zea mays); [16]): 0
Plant response rating, Giant foxtail ([9]; Rate 62 g/ha, Postemergence): 1
Giant foxtail plant response rating ([9]; Rate 62 g/ha, Preemergence): 0
Giant foxtail plant response rating ([9]; Rate 125 g/ha, Postemergence): 1
Giant foxtail plant response rating ([9]; Rate 125 g/ha, Preemergence): 1
Plant response rating, Giant foxtail ([9]; Rate 250 g/ha, Postemergence): 1
Plant response rating, Giant foxtail [9, 16]: 1
Plant response rating, Cocklebur ([10]; Rate 62 g/ha, Postemergence): 2
Cocklebur plant response rating ([10]; Rate 62 g/ha): 0
Plant response rating, Cocklebur ([10]; Rate 125 g/ha, Postemergence): 2
Cocklebur plant response rating ([10]; Rate 125 g/ha): 0
Plant response rating, Cocklebur ([10]; Rate 250 g/ha, Postemergence): 3
Plant response rating, Cocklebur [10, 16]: 0
Plant response rating, Morningglory ([11]; Rate 62 g/ha, Postemergence): 3
Morningglory plant response rating ([11]; Rate 62 g/ha, Preemergence): 0
Morningglory plant response rating ([11]; Rate 125 g/ha, Postemergence): 3
Morningglory plant response rating ([11]; Rate 125 g/ha, Preemergence): 0
Plant response rating, Morningglory ([11]; Rate 250 g/ha, Postemergence): 3
Plant response rating, Morningglory [11, 16]: 0
Plant response rating, Sugarbeets ([12]; Rate 62 g/ha, Postemergence): 3
Sugarbeets plant response rating ([12]; Rate 62 g/ha, Preemergence): 0
Sugarbeets plant response rating ([12]; Rate 125 g/ha, Postemergence): 8
Plant response rating, Sugarbeets ([12]; Rate 125 g/ha, Preemergence): 0
Plant response rating, Sugarbeets ([12]; Rate 250 g/ha, Postemergence): 8
Plant response rating, Sugarbeets [12, 16]: 0
Plant response rating, Barnyardgrass [13, 17]: 0
Plant response rating, Barnyardgrass [13, 18]: 0
Plant response rating, Barnyardgrass [13, 19]: 2
Plant response rating, Rice (rice (Oryza sativa); [17]): 0
Rice plant response rating (rice (Oryza sativa); [20]): 0
Plant response rating, Rice (rice (Oryza sativa); [19]): 0
Plant response rating, S. Flatsedge [14, 17]: 0
S. Flatsedge plant response rating [14, 20]: 1
Plant response rating, S. Flatsedge [14, 19]: 2
Plant response rating, Ducksalad [15, 17]: 0
Plant response rating, Ducksalad [15, 18]: 0
Plant response rating, Ducksalad [15, 19]: 0
